In publication PMC12301304 (Frontiers in Pharmacology, 2025):
Read-outs that look alike come from different tables or passages of the source.

What was measured:
CYP1a2 = molecular target: T1, CYP1a2 (Rattus norvegicus, UniProt P04799); conditions: microsomes
T1 sequence (P04799 1-513): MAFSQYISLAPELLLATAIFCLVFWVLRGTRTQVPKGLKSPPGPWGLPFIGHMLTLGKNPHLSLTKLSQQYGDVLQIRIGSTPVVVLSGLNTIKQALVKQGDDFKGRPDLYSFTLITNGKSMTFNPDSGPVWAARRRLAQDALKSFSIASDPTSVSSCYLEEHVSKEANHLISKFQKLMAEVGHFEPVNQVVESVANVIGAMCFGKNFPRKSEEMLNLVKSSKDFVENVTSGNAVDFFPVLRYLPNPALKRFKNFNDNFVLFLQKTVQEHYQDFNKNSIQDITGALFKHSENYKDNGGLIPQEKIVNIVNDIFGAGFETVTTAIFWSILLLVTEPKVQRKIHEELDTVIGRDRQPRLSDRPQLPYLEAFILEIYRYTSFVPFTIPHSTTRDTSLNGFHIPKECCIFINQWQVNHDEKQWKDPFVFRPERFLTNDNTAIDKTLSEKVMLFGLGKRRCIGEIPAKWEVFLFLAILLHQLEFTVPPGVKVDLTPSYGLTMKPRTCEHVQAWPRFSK
Experimental: (§1) The effect of the Zhicaowu–Hezi combination on CYP450 enzymes in RLM was evaluated by assessing the metabolic clearance rates of theophylline, metoprolol, bupropion, mephenytoin (CYP2c13), chlorzoxazone, testosterone, and diclofenac.
(§2) On day 15, the rats were humanely euthanized, and liver tissues were excised for microsomal preparation. […] Livers from each group were repeatedly washed with ice-cold phosphate buffered saline (PBS). […] Subsequently, they were blotted dry with filter paper, weighed, and homogenized by adding 4 mL of ice-cold PBS per gram of liver tissue. The mixture was homogenized in an ice bath. The liver homogenate was subjected to centrifugation at 10,000 RPM for 20 min at 4°C. The resulting supernatant was then combined with an ice-cold 88-mmol/L CaCl2 solution at a 1:1 ratio, and the mixture was homogenized in an ice bath for 5 min. The resulting solution was then centrifuged at 25,000 × g for 30 min at 4°C. The supernatant was discarded and the precipitate was repeatedly resuspended in PBS–20% glycerol buffer. The precipitate was then stored in a separate bottle at −80°C for backup. The protein concentration of the prepared RLM was determined using a bicinchoninic acid protein assay kit.
(§3) Preincubation was conducted for 5 min in a water bath at 37°C, after which NADPH (1 mmol/L) was added, and incubation continued for 30 min at 37°C. Once the incubation period elapsed, the reaction was terminated by the addition of an ice-cold IS-containing acetonitrile solution. The samples were vortexed for 2 min and centrifuged at 15,000 RPM for 10 min. The resulting supernatant was filtered through a 0.22-μm organic microporous membrane, and 20 μL of the filtered solution was injected into the HPLC assay. To prevent the organic solvents from inducing or inhibiting the enzyme, the volume fraction of organic solvents in the entire incubation system was maintained at 1%. […] The inhibitor group was added with corresponding inhibitor, while all other procedures remained identical.

CYP2d2 = molecular target: T2, CYP2d2 (Rattus norvegicus, UniProt P10634)
T2 sequence (P10634 1-500): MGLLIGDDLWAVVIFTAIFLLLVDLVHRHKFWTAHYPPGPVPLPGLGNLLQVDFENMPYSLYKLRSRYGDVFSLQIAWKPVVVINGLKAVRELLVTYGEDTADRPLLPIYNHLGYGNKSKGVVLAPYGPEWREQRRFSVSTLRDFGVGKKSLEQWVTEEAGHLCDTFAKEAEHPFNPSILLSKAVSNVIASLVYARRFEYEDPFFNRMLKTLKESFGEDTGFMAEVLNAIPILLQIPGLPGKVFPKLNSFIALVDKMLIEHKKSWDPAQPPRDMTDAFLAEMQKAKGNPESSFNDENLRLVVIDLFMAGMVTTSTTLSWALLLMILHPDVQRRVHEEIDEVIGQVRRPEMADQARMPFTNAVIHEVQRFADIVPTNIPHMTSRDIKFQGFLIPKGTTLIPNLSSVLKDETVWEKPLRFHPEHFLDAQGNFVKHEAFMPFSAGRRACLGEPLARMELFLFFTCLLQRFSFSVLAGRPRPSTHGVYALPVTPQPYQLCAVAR
Experimental: as §1, §2, §3

CYP3a1 = molecular target: T3, CYP3a1 (Rattus norvegicus, UniProt P04800)
T3 sequence (P04800 1-504): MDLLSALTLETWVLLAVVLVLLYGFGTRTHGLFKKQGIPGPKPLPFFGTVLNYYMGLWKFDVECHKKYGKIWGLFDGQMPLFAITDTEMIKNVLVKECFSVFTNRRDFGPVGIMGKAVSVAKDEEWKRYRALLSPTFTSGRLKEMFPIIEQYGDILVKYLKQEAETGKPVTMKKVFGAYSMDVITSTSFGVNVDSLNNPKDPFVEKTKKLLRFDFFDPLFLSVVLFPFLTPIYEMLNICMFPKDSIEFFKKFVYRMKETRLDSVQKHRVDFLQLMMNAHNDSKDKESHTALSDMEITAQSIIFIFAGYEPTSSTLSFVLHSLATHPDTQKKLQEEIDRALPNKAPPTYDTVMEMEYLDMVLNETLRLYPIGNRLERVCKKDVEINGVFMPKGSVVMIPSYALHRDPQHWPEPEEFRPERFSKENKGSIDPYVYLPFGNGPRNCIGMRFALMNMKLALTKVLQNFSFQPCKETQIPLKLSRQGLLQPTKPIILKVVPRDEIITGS
Experimental: as §1, §2, §3

CYP2b1 = molecular target: T4, CYP2b1 (Rattus norvegicus, UniProt P00176); assay: RLM incubation: metabolic clearance rate of bupropion (CYP2b1); conditions: RLM 0.5 mg/mL, 30 min 37°C, inhibitor added, blank control 7.92 ± 0.60, n = 3
T4 sequence (P00176 1-491): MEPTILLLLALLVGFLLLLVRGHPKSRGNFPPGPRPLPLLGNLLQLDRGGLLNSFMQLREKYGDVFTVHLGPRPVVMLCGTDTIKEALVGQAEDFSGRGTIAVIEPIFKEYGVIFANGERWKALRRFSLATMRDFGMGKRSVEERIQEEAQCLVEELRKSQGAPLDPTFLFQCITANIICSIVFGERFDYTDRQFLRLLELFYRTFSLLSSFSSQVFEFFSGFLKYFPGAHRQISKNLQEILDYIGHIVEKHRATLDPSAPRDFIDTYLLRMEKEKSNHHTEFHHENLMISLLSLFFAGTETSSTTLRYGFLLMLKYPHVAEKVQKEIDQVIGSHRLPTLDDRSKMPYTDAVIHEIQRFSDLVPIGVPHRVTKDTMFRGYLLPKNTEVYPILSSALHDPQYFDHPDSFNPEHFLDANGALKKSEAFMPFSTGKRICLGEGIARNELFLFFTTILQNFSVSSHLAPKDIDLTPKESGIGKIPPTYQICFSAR
Experimental: as §1, §2, §3

CYP2c13 = molecular target: T5, CYP2c13 (Rattus norvegicus, UniProt P20814); assay: RLM incubation: metabolic clearance rate of mephenytoin (CYP2c13); conditions: RLM 0.5 mg/mL, 30 min 37°C, inhibitor added, blank control 15.97 ± 0.68, n = 3
T5 sequence (P20814 1-490): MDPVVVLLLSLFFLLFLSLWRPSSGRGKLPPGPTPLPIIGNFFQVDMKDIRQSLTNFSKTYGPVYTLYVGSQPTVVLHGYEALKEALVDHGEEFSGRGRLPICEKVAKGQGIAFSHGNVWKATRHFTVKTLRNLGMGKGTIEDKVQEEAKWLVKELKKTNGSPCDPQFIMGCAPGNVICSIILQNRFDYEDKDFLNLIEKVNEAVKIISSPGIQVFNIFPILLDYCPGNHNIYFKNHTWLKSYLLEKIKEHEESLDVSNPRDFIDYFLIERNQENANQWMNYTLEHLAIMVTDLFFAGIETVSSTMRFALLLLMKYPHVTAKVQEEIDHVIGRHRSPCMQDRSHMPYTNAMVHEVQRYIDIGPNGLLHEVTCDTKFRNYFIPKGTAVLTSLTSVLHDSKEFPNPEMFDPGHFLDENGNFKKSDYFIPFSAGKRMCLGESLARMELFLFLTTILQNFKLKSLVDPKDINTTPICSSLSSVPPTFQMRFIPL
Experimental: as §1, §2, §3

CYP2c11 = molecular target: T6, CYP2c11 (Rattus norvegicus, UniProt P08683); conditions: RLM 0.5 mg/mL, 30 min 37°C, inhibitor added, probe diclofenac; blank control 21.12 ± 3.80; n = 3
T6 sequence (P08683 1-500): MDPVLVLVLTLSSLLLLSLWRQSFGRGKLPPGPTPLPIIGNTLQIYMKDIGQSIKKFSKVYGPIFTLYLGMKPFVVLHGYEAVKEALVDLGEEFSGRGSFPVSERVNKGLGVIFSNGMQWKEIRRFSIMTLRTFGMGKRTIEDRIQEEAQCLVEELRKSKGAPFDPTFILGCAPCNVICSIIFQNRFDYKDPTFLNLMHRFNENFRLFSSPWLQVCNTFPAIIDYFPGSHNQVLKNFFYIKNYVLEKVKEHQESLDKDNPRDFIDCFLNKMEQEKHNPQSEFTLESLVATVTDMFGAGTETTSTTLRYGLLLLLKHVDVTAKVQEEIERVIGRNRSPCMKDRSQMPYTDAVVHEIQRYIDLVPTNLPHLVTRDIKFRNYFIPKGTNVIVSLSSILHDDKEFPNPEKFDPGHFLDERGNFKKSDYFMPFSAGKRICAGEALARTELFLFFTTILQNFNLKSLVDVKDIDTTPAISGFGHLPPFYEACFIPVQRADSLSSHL
Experimental: as §1, §2, §3

CYP2e1 = CYP2e1 (Rattus norvegicus, UniProt P05182); assay: RLM incubation: metabolic clearance rate of chlorzoxazone (CYP2e1); conditions: RLM 0.5 mg/mL, 30 min 37°C, inhibitor added, blank control 15.80 ± 0.34, n = 3
Experimental: as §1, §2
Preincubation was conducted for 5 min in a water bath at 37°C, after which NADPH (1 mmol/L) was added, and incubation continued for 30 min at 37°C. […]

[1] = Pharmacokinetics of the seven cocktail probe drugs in blank control rats (Group C); conditions: for AUC(0-inf) / AUC(0-t) / CL/F / Cmax / half-life: rat, in vivo, po; for t1/2 z: probe drug in rat plasma, cocktail by gavage, Group C (0.3% CMC-Na 14 d), n = 8
Experimental: The effect of the Zhicaowu–Hezi combination on CYP450 enzymes in rats was evaluated by examining the pharmacokinetics of theophylline (CYP1a2), metoprolol (CYP2d2), bupropion (CYP2b1), omeprazole (CYP2c13), chlorzoxazone (CYP2e1), testosterone (CYP3a1), and diclofenac (CYP2c11).
The collected blood was placed in sodium heparin-treated centrifuge tubes and centrifuged at 4°C for 10 min at 3,000 RPM. […] After 10 min of sedimentation, the supernatant was extracted through a 0.22-μm microporous membrane, 20 μL of which was injected into HPLC. The pharmacokinetic parameters of each probe drug were calculated using the non-atrial compartment model in Drug and Statistics software (DAS, 3.0; Shanghai, China).

[2] = ref Jin et al., 2024, cited from earlier work

Sequence of CYP2e1 (P05182 whole entry): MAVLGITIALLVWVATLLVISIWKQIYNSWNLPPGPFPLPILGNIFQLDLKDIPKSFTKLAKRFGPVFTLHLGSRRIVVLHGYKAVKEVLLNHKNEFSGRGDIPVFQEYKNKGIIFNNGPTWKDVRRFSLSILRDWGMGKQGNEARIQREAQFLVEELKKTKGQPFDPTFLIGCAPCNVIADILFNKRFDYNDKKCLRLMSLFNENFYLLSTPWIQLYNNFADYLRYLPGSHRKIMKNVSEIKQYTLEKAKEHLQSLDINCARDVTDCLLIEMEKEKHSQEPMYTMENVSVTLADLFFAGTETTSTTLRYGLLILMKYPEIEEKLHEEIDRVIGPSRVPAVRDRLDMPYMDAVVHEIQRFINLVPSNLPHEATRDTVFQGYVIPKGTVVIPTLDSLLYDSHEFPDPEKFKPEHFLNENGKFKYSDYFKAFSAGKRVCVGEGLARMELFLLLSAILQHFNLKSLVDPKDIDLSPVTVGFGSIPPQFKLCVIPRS

| Structure (SMILES) | AUC(0-inf) [1] [ng·h/mL] | AUC(0-t) [1] [ng·h/mL] | CL/F [1] [mL/min/kg] | Cmax [1] [ng/mL] | half-life [1] [h] | further results |
| --- | --- | --- | --- | --- | --- | --- |
| CC(=O)N1CCN(c2ccc(OCC3COC(Cn4ccnc4)(c4ccc(Cl)cc4Cl)O3)cc2)CC1 (stereo not shown) [Ketoconazole, ketoconazole] |  |  |  |  |  | CYP1a2 (%) metabolic clearance rate of probe drug (CYP1a2): 36.04 ± 1.71%; CYP2d2 (%) metabolic clearance rate of probe drug (CYP2d2): 12.73 ± 1.11%; CYP3a1 (%) metabolic clearance rate of probe drug (CYP3a1): 5.45 ± 2.49 %; CYP2b1(%) metabolic clearance rate of probe drug (CYP2b1): 7.11 ± 0.17%; CYP2c13(%) metabolic clearance rate of probe drug (CYP2c13): 17.26 ± 1.08% |
| Nc1ccc(S(=O)(=O)Nc2ccnn2-c2ccccc2)cc1 [Sulfaphenazolum] |  |  |  |  |  | CYP2c11(%) metabolic clearance rate of probe drug (CYP2c11): 6.16 ± 0.65 %; CYP2d2 (%) metabolic clearance rate of probe drug (CYP2d2; RLM 0.5 mg/mL, 30 min 37°C, inhibitor added, probe metoprolol, blank control […] ± 2.12, n = 3): 13.50 ± 0.30%; CYP3a1 (%) metabolic clearance rate of probe drug (CYP3a1; RLM 0.5 mg/mL, 30 min 37°C, inhibitor added, probe testosterone, blank control 25.04 ± 1.93, n = 3): 25.69 ± 1.69%; CYP2b1(%) metabolic clearance rate of probe drug (CYP2b1): 7.74 ± 0.98%; CYP2c13(%) metabolic clearance rate of probe drug (CYP2c13): 16.47 ± 1.34%; CYP2e1 (%) metabolic clearance rate of probe drug (CYP2e1): 16.11 ± 0.18% |
| CC(NC(C)(C)C)C(=O)c1cccc(Cl)c1 (stereo not shown) [bupropion] | 16300 ± 1410 | 15800 ± 1320 | 7.16 | 1300 ± 93 | 18.7 ± 0.948 |  |
| O=C(O)Cc1ccccc1Nc1c(Cl)cccc1Cl [diclofenac] | 5470 ± 358 | 5230 ± 465 | 42.3 | 1080 ± 115 | 4.98 ± 0.557 |  |
| CC1(C)[C@@H](O[C@H]2O[C@H](C(=O)O)[C@@H](O)[C@H](O)[C@H]2O[C@@H]2O[C@H](C(=O)O)[C@@H](O)[C@H](O)[C@H]2O)CC[C@]2(C)[C@H]3C(=O)C=C4[C@@H]5C[C@@](C)(C(=O)O)CC[C@]5(C)CC[C@@]4(C)[C@]3(C)CC[C@@H]12 [glycyrrhizin] |  |  |  |  |  | reduction of systemic exposure to aconitine ([2]; glycyrrhizin by intravenous injection): 33%; reduction of systemic exposure to aconitine ([2]; glycyrrhizin by oral gavage): 27% |
| COCCc1ccc(OCC(O)CNC(C)C)cc1 (stereo not shown) [metoprolol] | 10100 ± 1480 | 9600 ± 988 | 26.3 | 891 ± 114 | 7.95 ± 1.15 |  |
| COc1ccc2[nH]c([S+]([O-])Cc3ncc(C)c(OC)c3C)nc2c1 (stereo not shown) [omeprazole] | 3900 ± 394 | 3840 ± 372 | 43.4 | 995 ± 78 |  | t1/2 z [1]: 4.689 ± 0.467 h |
| C[C@]12CC[C@H]3[C@@H](CCC4=CC(=O)CC[C@@]43C)[C@@H]1CC[C@@H]2O [testosterone] | 1410 ± 69 | 1210 ± 81 | 66.8 | 295 ± 54 | 11.1 ± 1.11 |  |
| Cn1c(=O)c2[nH]cnc2n(C)c1=O [theophylline] | 22500 ± 1440 | 21900 ± 1250 | 7.75 | 1810 ± 94 |  | t1/2 z [1]: 5.273 ± 0.526 h |
